Source: patent publication US20090197818A1, “Use Of Ribose for Recovery From Anaesthesia” (priority 2004, published 2009)

Key:
[1] = system: patients recovering from hip or knee replacement operations; assay: Anecdotal results from non-cardiac surgery with general anaesthesia; type: in vivo, human
Description: For example, a person underwent two hip replacement operations, five months apart. With the second operation, they began taking oral ribose immediately after their recovery from anaesthesia. Their recovery to a feeling of alertness and energy was more rapid than after the first operation. Furthermore, their level of pain was less. Likewise, a person also underwent two knee replacement operations. With the second operation, they self-administered D-Ribose pre- and postoperatively. Their recovery to a feeling of alertness and energy was more rapid than after the first operation. Bauer et al. (Z. Geb. Neonatal 2001 May-June, 205(3):80-85) studied the efficacy of oral glucose for treating procedural pain in neonates. […] The authors proposed that the orogustatory stimulation by the sweet taste caused an endorphin release. It is not known whether the result seen was due to the local effect or to a systemic effect of glucose.

Wistar rats = assay: Planned non-cardiac sham abdominal surgery study under halothane anaesthesia; type: in vivo, rat; conditions: D-Ribose before, during and after sham operation
Procedure: Littered-paired Wistar rats will be preconditioned with oral D-Ribose (250 mg/day, 10 animals) as a test drug or D-Glucose(250 mg/day, 10 animals) as a placebo for five days. Following the preconditioning, the rats will be anesthetized with halothane, intubated for artificial respiration and paralyzed with curare. Following general anaesthesia, the rats will be given either the test drug or placebo, intravenously (IV). A two-inch abdominal incision will be made and the viscera will be carefully manipulated to simulate an abdominal exploratory surgery. The incision will be closed and the animals will be held under anaesthesia for one additional hour. Following that hour, anaesthesia will be discontinued and the IV infusion will be halted. The animals will be placed individually in activity cages and their activity will be assessed daily for five days. Test drug or placebo will be added to the drinking water at a dosage of 5% wt/vol. The blinded results will be observed for: first movement (return to consciousness following the sham operation) and daily activity over the first day and next five days. Food and water intake and gastrointestinal function will be measured.

[2] = system: adult patients selected for OCBP revascularization; assay: Presurgical oral D-ribose loading before off cardiopulmonary bypass (OCBP) revascularization: cardiac indices; type: in vivo, human; conditions: 24 patients oral D-ribose preoperatively vs 20 without; baseline to post-operative; p<0.028
Description: Patients with stable coronary artery disease or patients presenting with acute myocardial infarction may undergo revascularization using an “off” cardiopulmonary bypass procedure (“OCBP”). This procedure avoids the deleterious effects of cross-clamping in patients who can be selected for the procedure. The selection criteria include: accessibility of the grafts; number of the grafts; condition of the patient. When the area to be revascularized is at the back of the heart, the heart will need to be handled and rotated, which would interfere with the beating of the heart. If several grafts are needed, the time of operation is prolonged and the patient's heart will need to support circulation for a long time. Finally, a poorly functioning heart will need the assistance of the pump to support circulation. Nevertheless, in properly selected patients, the benefits of avoiding cross-clamping are substantial.
Forty-four adult patients were enrolled in a trial. At least one-third of the patents had sustained an acute myocardial infarction prior to presentation and pre-operative ejection fractions ranged from 30-72%. All patients were selected for OCBP revascularization with 20 patients consuming no pre-operative ribose and 24 patients given oral D-ribose preoperatively, cardiac indices were measured at baseline and post-operatively. […]

[3] = system: patients undergoing valve surgery plus CABG or CABG alone with aortic cross clamping; assay: Double-blind placebo-controlled clinical trial of intravenous D-Ribose in cardiac surgery: ejection fraction by echocardiography; type: in vivo, human; conditions: placebo EF declined; ANOVA repeated measures p=0.04
Description: A protocol was devised to test whether human subjects undergoing either valve surgery plus coronary artery bypass graft (CABG) or CABG alone with decreased heart function would benefit from the administration of ribose following heart surgery as did the healthy dogs of the Foker study. […] Inclusion criteria were: • Males or females aged 18 or older • Patients with documented coronary artery disease undergoing CABG with an ejection fraction (EF) of ≦35% based on echocardiography, radionuclide imaging or cardiac catheterization done within eight weeks of surgery. […] For both the transesophageal and transthoracic echocardiograms, the following long axis and short axis mid-papillary area changes were measured in triplicate by acoustic quantification techniques: end diastolic area (EDA), end systolic area (ESA), fractional area change (FAC), +dA/dt and -dA/dt. All area change data were also analyzed by manual off line analysis. EF was also determined off line using a long axis view. In addition, regional wall motion was quantified as the following: normal=1, hypokinetic=2, akinetic=3 and dyskinetic=4. The wall motion index score (WMIS) and percentage normal myocardium were calculated by reading a maximum of sixteen segments. […]

[4] = system: patients with aortic valve disease undergoing AVR; assay: Planned clinical trial: preconditioning with oral D-Ribose before cross clamping, then intravenous infusion; type: in vivo, human; conditions: oral D-Ribose 7 or 14 days before surgery, then i.v. 100 mg/kg/hour for five days
Description: A single-center, randomized, double-blinded placebo-controlled clinical trial was designed to determine if preoperative oral administration of D-Ribose, following by peri-operative and operative intravenous infusion of D-Ribose could improve the ejection fraction and other functional parameters of hearts that are cross-clamped for various cardiac surgical procedures. Thirty (30) patients meeting the inclusion and exclusion criteria and who have signed informed consent forms will be randomized to receive oral D-Ribose (15) or D-Glucose (placebo) (15) for seven or 14 days prior to their surgical procedure and intravenous 5% […] (5% D-Glucose in normal saline, 0.5 mL/kg/hour) or 10% pyrogen-free D-Ribose in 5% D5W at a dose of 100 mg/kg/hour for five (5) days through a pulmonary artery cordis) beginning at the time of aortic cross clamping. […] Patients will be evaluated baseline ×2, (once prior to beginning oral test supplement and again within three days prior to surgical procedure), during and after surgery, and at days 1, 5 and 7. […] Patients will be evaluated for eligibility within three days to first test article administration and evaluation will be updated within three days prior to surgery. […] A medication history will be taken and all medications recorded in the case report. […]

[5] = Blood glucose monitoring and clinical laboratory safety in the intravenous D-Ribose cardiac surgery trial; type: in vivo, human
Procedure: Blood glucose levels were determined hourly, after initiation of the study drug infusion, by dextrastix (Accu-Chk III, Boehringer Mannheim Corp. Indianapolis Ind.) using blood from an intraarterial catheter. If the blood glucose level remained stable for 12 hours, then subsequent blood glucose levels were measured every 4 to 6 hours until the study drug infusion was stopped. Other clinical laboratory measurements including complete CBC with differential, platelet count, electrolytes=, liver function studies, serum osmolarity, and urinalysis were completed the morning following surgery. Abnormal laboratory tests were repeated as clinically indicated until normal or determined not to be clinically significant.
Five patients (28%) in the ribose treated group developed hypoglycemia (fingerstick glucose<70 mg/dl)) a known side effect of this pentose sugar. No placebo treated patients developed hypoglycemia. The mean glucose level in those patients developing hypoglycemia was 58 mg/dl. The lowest glucose level was 31 mg/dl. […] The study drug infusion was stopped in two subjects because of hypoglycemia. […] There were no statistical differences in the other clinical laboratory measurements.

healthy dog hearts = conditions: D-Ribose from reperfusion for at least four days; U.S. Pat. No. 4,719,201; cited from earlier work
rats = conditions: halothane for 30 minutes; Hendricks et al. 1984; cited from earlier work

SMILES | recovery to a feeling of alertness and energy compared with first operation ([1]; oral ribose at second operation, single patients) | level of pain compared with first operation ([1]; person, oral ribose after second hip replacement) | expected activity during the following five days versus placebo (Wistar rats) | expected first movement after anaesthesia versus placebo (Wistar rats) | greater increase in cardiac indices compared to controls [2] [%] | time to cardiac arrest with cardioplegia containing ribose versus animals not given ribose (cross-bred sheep; difference not statistically significant) | tolerability of supplemental ribose (cross-bred sheep; in vivo) | time quiet and inactive after extubation (cross-bred sheep; untreated series: additional 2 hours) | time to assume a consciousness state versus animals not given ribose (cross-bred sheep; upon weaning from the ventilator) | course of EF from baseline to Day 7 versus placebo [3] | expected myocardial function versus placebo [4] | patients with neurological or other clinical symptoms associated with hypoglycemia ([5]; hypoglycemic patients of the ribose treated group) | lowest glucose level ([5]; ribose treated group) [mg/dL] | mean glucose level in patients developing hypoglycemia ([5]; ribose treated group) [mg/dL] | patients who developed hypoglycemia (fingerstick glucose<70 mg/dl) ([5]; ribose treated group, five patients, none in placebo) [%] | ATP recovery after global myocardial ischemia (healthy dog hearts) | behavioural effects during the first week after anaesthesia (rats)
O=C[C@H](O)[C@H](O)[C@H](O)CO [D-Ribose] | more rapid | less | increased activity | earlier movement | 49 | somewhat faster | no metabolic or chemical abnormalities | about one | faster | EF was maintained | better myocardial function | None | 31 | 58 | 28 | enhanced ATP recovery | 
FC(F)(F)C(Cl)Br (centres unmarked) [halothane] |  |  |  |  |  |  |  |  |  |  |  |  |  |  |  |  | reduced spontaneous activity and neurological deficit
